Like-named read-outs stand apart in the source and are kept apart here.
Key:
[1] = tested on: Bifidobacterium adolescentis (DSMZ 20083); assay: Spot assay of clarified lysates on non-Cp species; type: cell-based; set-up: key: The presence of antimicrobial activity is denoted by a ‘+’; the lack of antimicrobial activity is denoted by a ‘−’
[2] = tested on: Clostridium leptum (DSMZ 753); assay: Spot assay of clarified lysates on non-Cp species; type: cell-based; set-up: key: The presence of antimicrobial activity is denoted by a ‘+’; the lack of antimicrobial activity is denoted by a ‘−’
[3] = tested on: Clostridium colinum (DSMZ 6011); assay: Spot assay of clarified lysates on non-Cp species; type: cell-based; set-up: key: The presence of antimicrobial activity is denoted by a ‘+’; the lack of antimicrobial activity is denoted by a ‘−’
[4] = tested on: C. perfringens reference strains (NCTC 2837, 8235, 8237, 8238, 8239, 8359, 8678, 10578); type: cell-based, Clostridium perfringens; conditions: for effect on C. perfringens growth in spot assay: 10 μg/ml chloramphenicol, 20 μg/ml spectinomycin, 1 mg/mL lysozyme, 1 mg/mL disodium EDTA; for effect in spot assay: NCTC 8237, FIG. 4, freshly-plated cells and cell lawns
[5] = tested on: Clostridium cellobioparum (DSMZ 1351); assay: Spot assay of clarified lysates on non-Cp species; type: cell-based; set-up: key: The presence of antimicrobial activity is denoted by a ‘+’; the lack of antimicrobial activity is denoted by a ‘−’
[6] = tested on: C. perfringens reference strains (NCTC 2837, 8237, 8238, 8239); type: cell-based, Clostridium perfringens
[7] = tested on: C. perfringens strain Cp6; type: cell-based, Clostridium perfringens
[8] = tested on: C. perfringens NCTC reference strains and APHA field isolates; type: cell-based, Clostridium perfringens; set-up: key to bacteriolytic activity, cell lawn: (−) indicates no visible lysis; +/−, +, ++, +++ correspond to increasingly clear lysis halos around the paper disks; +/−, +, ++, +++ correspond to increasingly clear lysis halos around the paper disks; +/−, +, ++, +++ correspond to increasingly clear lysis halos around the paper disks; +/−, +, ++, +++ correspond to increasingly clear lysis halos around the paper disks
C. perfringens Cp6 PGN = type: biochemical, Clostridium perfringens; conditions: 54D extract, 3× replicates, fresh PGN stock
[9] = NCTC 2837, FP (freshly-plated cells)

With CC1(C)S[C@@H]2[C@H](NC(=O)[C@H](N)c3ccccc3)C(=O)N2[C@H]1C(=O)O [Ampicillin] the “antimicrobial activity in spot assay (clearance zone)” value (“antimicrobial activity in spot assay” below) ([1]; DSMZ 20083, CL) was “−”, the “antimicrobial activity in spot assay” value ([1]; DSMZ 20083, FP) was “+” and the “antimicrobial activity in spot assay” value ([2]; DSMZ 753, CL) was “−”. The “antimicrobial activity in spot assay” value ([3]; DSMZ 6011, CL) was “−”, the “antimicrobial activity in spot assay” value ([3]; DSMZ 6011, FP) was “−” and the “antimicrobial activity in spot assay” value ([4]; NCTC 2837, CL (cell lawn)) was “−”. For the same molecule, the “antimicrobial activity in spot assay” value [4, 9] was “+”, the “antimicrobial activity in spot assay” value ([4]; NCTC 8235, CL) was “−” and the “antimicrobial activity in spot assay” value ([4]; NCTC 8235, FP) was “+”. The “antimicrobial activity in spot assay” value ([4]; NCTC 8237, CL) was “−”, the “antimicrobial activity in spot assay” value ([4]; NCTC 8237, FP) was “+” and the “antimicrobial activity in spot assay” value ([4]; NCTC 8238, CL) was “−”. For the same molecule, the “antimicrobial activity in spot assay” value ([4]; NCTC 8238, FP) was “+”, the “antimicrobial activity in spot assay” value ([4]; NCTC 8239, CL) was “−” and the “antimicrobial activity in spot assay” value ([4]; NCTC 8239, FP) was “+”. For the same molecule, the “antimicrobial activity in spot assay” value ([4]; NCTC 8359, CL) was “−”, the “antimicrobial activity in spot assay” value ([4]; NCTC 8359, FP) was “+” and the “antimicrobial activity in spot assay” value ([4]; NCTC 8678, CL) was “−”. The “antimicrobial activity in spot assay” value ([4]; NCTC 8678, FP) was “+”, the “antimicrobial activity in spot assay” value ([4]; NCTC 10578, CL) was “−” and the “antimicrobial activity in spot assay” value ([4]; NCTC 10578, FP) was “+”. For the same molecule, the “antimicrobial activity in spot assay” value ([5]; DSMZ 1351, CL) was “−” and the “antimicrobial activity in spot assay” value ([5]; DSMZ 1351, FP) was “+”.

O=C(N[C@H](CO)[C@H](O)c1ccc([N+](=O)[O-])cc1)C(Cl)Cl [Chloramphenicol] was tested, and the “effect on C. perfringens growth in spot assay” value (“effect on C. perfringens growth” below) [4] was “no effect” and the “effect in spot assay” value [4] was “no effect”.

With “Lysozyme: Chicken hen egg white lysozyme, reference enzybiotic” the “bacteriolytic activity in turbidity reduction assay” value [6] was “minimal bacteriolytic activities”, the “antimicrobial activity in spot assay” value ([1]; DSMZ 20083, CL) was “−” and the “antimicrobial activity in spot assay” value ([1]; DSMZ 20083, FP) was “−”. The MBC ([7]; Cp6, molar basis) was over 174 µM, the MIC ([7]; Cp6, molar basis) was over 174 µM and the MBC ([7]; Cp6, ~2.1E4 cells/mL) was over 2500 µg/mL. The “lysozyme loading not able to inhibit overnight growth” value ([7]; Cp6, ~2.1E4 cells/mL) was over 2.5 mg/mL, the MIC ([7]; Cp6, ~2.1E4 cells/mL, overnight at 41° C.) was over 2500 µg/mL and the “antimicrobial activity in spot assay” value [2] was “−”. For the same molecule, the “bacteriolytic activity, cell lawn” value ([8]; APHA B00907, 50 μg/ml) was “−”, the “growth inhibition, freshly plated cells” value ([8]; APHA B00907, 50 μg/ml) was “−” and the “bacteriolytic activity, cell lawn” value ([8]; APHA B00917, 50 μg/ml) was “−”. The “growth inhibition, freshly plated cells” value ([8]; APHA B00917, 50 μg/ml) was “−”, the “bacteriolytic activity, cell lawn” value ([8]; APHA B00954, 50 μg/ml) was “−” and the “growth inhibition, freshly plated cells” value ([8]; APHA B00954, 50 μg/ml) was “−”. For the same molecule, the “bacteriolytic activity, cell lawn” value ([8]; APHA B00964, 50 μg/ml) was “−”, the “growth inhibition, freshly plated cells” value ([8]; APHA B00964, 50 μg/ml) was “−” and the “bacteriolytic activity, cell lawn” value ([8]; APHA B00976, 50 μg/ml) was “−”. For the same molecule, the “growth inhibition, freshly plated cells” value ([8]; APHA B00976, 50 μg/ml) was “−”, the “bacteriolytic activity, cell lawn” value ([8]; APHA G00033, 50 μg/ml) was “−” and the “growth inhibition, freshly plated cells” value ([8]; APHA G00033, 50 μg/ml) was “−”. For the same molecule, the “bacteriolytic activity, cell lawn” value ([8]; APHA W100102, 50 μg/ml) was “−”, the “growth inhibition, freshly plated cells” value ([8]; APHA W100102, 50 μg/ml) was “−” and the “bacteriolytic activity, cell lawn” value ([8]; NCTC 2837, 50 μg/ml) was “−”. For the same molecule, the “growth inhibition, freshly plated cells” value ([8]; NCTC 2837, 50 μg/ml) was “−”, the “bacteriolytic activity, cell lawn” value ([8]; NCTC 8237, 50 μg/ml) was “−” and the “growth inhibition, freshly plated cells” value ([8]; NCTC 8237, 50 μg/ml) was “−”. The “bacteriolytic activity, cell lawn” value ([8]; NCTC 8238, 50 μg/ml) was “−”, the “growth inhibition, freshly plated cells” value ([8]; NCTC 8238, 50 μg/ml) was “−” and the “bacteriolytic activity, cell lawn” value ([8]; NCTC 8239, 50 μg/ml) was “−”. For the same molecule, the “growth inhibition, freshly plated cells” value ([8]; NCTC 8239, 50 μg/ml) was “−”, the “antimicrobial activity in spot assay” value [3] was “−” and the “effect on C. perfringens growth” value [4] was “no effect”. For the same molecule, the “antimicrobial activity in spot assay” value ([4]; NCTC 2837, CL (cell lawn)) was “−”, the “antimicrobial activity in spot assay” value [4, 9] was “−” and the “antimicrobial activity in spot assay” value ([4]; NCTC 8235, CL) was “−”. For the same molecule, the “antimicrobial activity in spot assay” value ([4]; NCTC 8235, FP) was “−”, the “antimicrobial activity in spot assay” value ([4]; NCTC 8237, CL) was “−” and the “antimicrobial activity in spot assay” value ([4]; NCTC 8237, FP) was “−”. For the same molecule, the “antimicrobial activity in spot assay” value ([4]; NCTC 8238, CL) was “−”, the “antimicrobial activity in spot assay” value ([4]; NCTC 8238, FP) was “−” and the “antimicrobial activity in spot assay” value ([4]; NCTC 8239, CL) was “−”. For the same molecule, the “antimicrobial activity in spot assay” value ([4]; NCTC 8239, FP) was “−”, the “antimicrobial activity in spot assay” value ([4]; NCTC 8359, CL) was “−” and the “antimicrobial activity in spot assay” value ([4]; NCTC 8359, FP) was “+”. For the same molecule, the “antimicrobial activity in spot assay” value ([4]; NCTC 8678, CL) was “−”, the “antimicrobial activity in spot assay” value ([4]; NCTC 8678, FP) was “−” and the “antimicrobial activity in spot assay” value ([4]; NCTC 10578, CL) was “−”. The “antimicrobial activity in spot assay” value ([4]; NCTC 10578, FP) was “−” and the “antimicrobial activity in spot assay” value [5] was “−”.

NC[C@H]1O[C@H](O[C@H]2[C@H](O)[C@@H](O[C@H]3O[C@H](CO)[C@@H](O)[C@H](N)[C@H]3O)[C@H](N)C[C@@H]2N)[C@H](O)[C@@H](O)[C@@H]1O [kanamycin] was tested, and the “effect in spot assay” value [4] was “no effect”.

With O=C([O-])CN(CCN(CC(=O)[O-])CC(=O)O)CC(=O)O.[Na+].[Na+] [disodium EDTA] the “effect on C. perfringens growth” value [4] was “no effect” and the “effect on freshly-plated cells in spot assay” value ([4]; 10 mM EDTA, screening set 2) was “inhibitory effect”.

For CN[C@@H]1[C@H](O)[C@H](NC)[C@H]2O[C@@]3(O)C(=O)C[C@@H](C)O[C@H]3O[C@@H]2[C@H]1O [spectinomycin], the “effect on C. perfringens growth” value [4] was “no effect” and the “effect in spot assay” value [4] was “no effect”.

B1: AMI3CPF4969: endolysin sequence, SEQ ID NO: 11 (protein)
chain: QSRSDSNFKGIDISNWQKGINLNQLKERGYDVCYIKITEGKGYVDPCFEENYNKAIAAGMKVGVYHYWRGTSSAIEQANNIVRTLGNKHIDCKIAIDVEQTDGLSYGELNNSVLQLAEELERLIGAEVCIYCNTNYARNVLDSRLGKYSLWVAHYGVNKPGDNPIWDKWAGFQYSENGTSNVNGSLDLDEFTEEIFINKESSKVTENKLFSTNARALVALDPRDNPSDNYNDLGEIYEGERIQVLAEVCDKEDYLPVKYWKDSEGRESGKVWIRSKQDYMMIDTYHRVFNVITQLDARYEPSSDSATMGYVKNGERLYVHRTEGNYSLCTYFAGNGYKTAWFTAKYLER
modifications: AMI3CPF4969
In the case of B1, the “fold enhancement of PGN degradation activity in 54D algal extract vs PBS, pH 7.0” value (C. perfringens Cp6 PGN) is reported as at most 44 fold.
